Data as given in ChEMBL document CHEMBL4334471, “Discovery of 1,8-disubstituted-[1,2,3]triazolo[4,5-c]quinoline derivatives as a new class of Hippo signaling pathway inhibitors” (Bioorg Med Chem Lett, 2019).

Legend:
[1] = target: Myosin light chain kinase, smooth muscle (Homo sapiens) (UniProt Q15746); test: Inhibition of recombinant human MLCK (1425 to 1771 residues) assessed as residual activity at 10 uM using […] incubated for 40 mins in presence of [gamma-33ATP by scintillation counting based radiometry assay relative to control
[2] = target: CDK6/cyclin D3 (Homo sapiens) (UniProt P30281+Q00534); test: Inhibition of recombinant full length human CDK6/cyclinD3 assessed as residual activity at 10 uM using histone H1 as substrate incubated for 40 mins in presence of [gamma-33ATP] by scintillation counting based radiometry assay relative to control; format: protein-complex assay
[3] = test system: Epidermal growth factor receptor (Homo sapiens), P00533 [L858R]; test: Inhibition of recombinant human EGFR L858R mutant (696 to end residues) assessed as residual activity at 10 uM using poly(Glu, Tyr) 4:1 as substrate at 40 mins in presence of [gamma-33ATP] by scintillation counting based radiometry assay relative to control
[4] = test system: Proto-oncogene tyrosine-protein kinase Src (Homo sapiens), P12931 [T341M]; test: Inhibition of recombinant full length human SRC T341M mutant assessed as residual activity at 10 uM using GGEEEEYFELVKK as substrate incubated for 40 mins in presence of [gamma33P]ATP by scintillation counting based radiometry assay relative to control
[5] = target: Proto-oncogene tyrosine-protein kinase Src (Homo sapiens) (UniProt P12931); test: Inhibition of recombinant human C-Src assessed as residual activity at 10 uM Cdc2 peptide as substrate incubated 40 mins in presence of [gamma-33ATP] by scintillation counting based radiometry assay relative to control
[6] = target: Tyrosine-protein kinase FRK (Homo sapiens) (UniProt P42685); test: Inhibition of recombinant human PTK5 (218 to end residues) assessed as residual activity at 10 uM using GGEEEEYFELVKKKK as substrate incubated for 40 mins in presence of [gamma33P]ATP by scintillation counting based radiometry assay relative to control
[7] = target: Casein kinase I isoform delta (Homo sapiens) (UniProt P48730); test: Inhibition of recombinant human CK1delta (1 to 294 residues) assessed as residual activity at 10 uM using KRRRALS(p)VASLPGL as substrate incubated for 40 mins in presence of [gamma-33ATP] by scintillation counting based radiometry assay relative to control
[8] = target: Ephrin type-A receptor 3 (Homo sapiens) (UniProt P29320); test: Inhibition of recombinant human EphA3 (578 to end residues) assessed as residual activity at 10 uM using poly(Glu, Tyr) 4:1 as substrate at 40 mins in presence of [gamma-33ATP] by scintillation counting based radiometry assay relative to control
[9] = target: Serine/threonine-protein kinase STK11 (Homo sapiens) (UniProt Q15831); test: Inhibition of recombinant human LKB1 assessed as residual activity at 10 uM using LSNLYHQGKFLQT as substrate after 40 mins in presence of [gamma-33ATP] by scintillation counting based radiometry assay relative to control
[10] = target: NT-3 growth factor receptor (Homo sapiens) (UniProt Q16288); test: Inhibition of recombinant human TRKC (510 to end residues) assessed as residual activity at 10 uM using GEEPLYWSFPAKK as substrate incubated for 40 mins in presence of [gamma33P]ATP by scintillation counting based radiometry assay relative to control
[11] = target: Dual specificity tyrosine-phosphorylation-regulated kinase 1A (Homo sapiens) (UniProt Q13627); test: Inhibition of recombinant human DYRK1A assessed as residual activity at 10 uM using RRRFRPASPLRGPP as substrate at 40 mins in presence of [gamma-33ATP] by scintillation counting based radiometry assay relative to control
[12] = target: Mitogen-activated protein kinase kinase kinase 3 (Homo sapiens) (UniProt Q99759); test: Inhibition of recombinant full length human MEKK3 assessed as residual activity at 10 uM using myelin basic protein as substrate incubated for 120 mins in presence of [gamma-33ATP by scintillation counting based radiometry assay relative to control
[13] = test system: Fibroblast growth factor receptor 2 (Homo sapiens), P21802 [N549H]; test: Inhibition of recombinant human FGFR2 N549H mutant (456 to 765 residues) assessed as residual activity at 10 uM using KKKSPGEYVNIEF as substrate at 40 mins in presence of [gamma-33ATP] by scintillation counting based radiometry assay relative to control
[14] = target: Dual specificity mitogen-activated protein kinase kinase 6 (Homo sapiens) (UniProt P52564); test: Inhibition of recombinant human MKK6 assessed as residual activity at 10 uM by scintillation counting based radiometry assay relative to control
Homo sapiens = organism: Homo sapiens; test: Inhibition of recombinant full length human PRAK R291E mutant assessed as residual activity at 10 uM using KKLRRTLSVA as substrate incubated for 40 mins in presence of [gamma33P]ATP by scintillation counting based radiometry assay relative to control
[15] = target: Non-receptor tyrosine-protein kinase TYK2 (Homo sapiens) (UniProt P29597); test: Inhibition of recombinant human TYK2 (875 to end residues) assessed as residual activity at 10 uM using GGMEDIYFEFMGGKKK as substrate incubated for 40 mins in presence of [gamma33P]ATP by scintillation counting based radiometry assay relative to control
[16] = target: NUAK family SNF1-like kinase 2 (Homo sapiens) (UniProt Q9H093); test: Inhibition of recombinant human full length NUAK2 assessed as residual activity at 10 uM using KKKVSRSGLYRSPSMPENLNRPR as substrate measured after 40 mins in presence of [gamma33P]ATP by scintillation counting based radiometry assay relative to control
[17] = test system: Phosphorylase b kinase gamma catalytic chain, liver/testis isoform (Homo sapiens), P15735 [F290L]; test: Inhibition of recombinant human PhKgamma2 F290L mutant (1 to 301 residues) assessed as residual activity at 10 uM using KKLNRTLSFAEPG as substrate incubated for 40 mins in presence of [gamma33P]ATP by scintillation counting based radiometry assay relative to control
[18] = target: Serine/threonine-protein kinase VRK1 (Homo sapiens) (UniProt Q99986); test: Inhibition of recombinant human VRK1 assessed as residual activity at 10 uM in presence of [gamma33P]ATP by scintillation counting based radiometry assay relative to control
[19] = target: Death-associated protein kinase 1 (Homo sapiens) (UniProt P53355); test: Inhibition of recombinant human DAPK1 (1 to 296 residues) assessed as residual activity at 10 uM KKLNRTLSFAEPG as substrate incubated 40 mins in presence of [gamma-33ATP] by scintillation counting based radiometry assay relative to control
[20] = target: Vascular endothelial growth factor receptor 2 (Homo sapiens) (UniProt P35968); test: Inhibition of human KDR (790 to end residues) assessed as residual activity at 10 uM using myelin basic protein as substrate after 40 mins by [gamma-33ATP] radiometric assay relative to control
Vascular endothelial growth factor receptor 2 (Homo sapiens), sequence (P35968 whole entry): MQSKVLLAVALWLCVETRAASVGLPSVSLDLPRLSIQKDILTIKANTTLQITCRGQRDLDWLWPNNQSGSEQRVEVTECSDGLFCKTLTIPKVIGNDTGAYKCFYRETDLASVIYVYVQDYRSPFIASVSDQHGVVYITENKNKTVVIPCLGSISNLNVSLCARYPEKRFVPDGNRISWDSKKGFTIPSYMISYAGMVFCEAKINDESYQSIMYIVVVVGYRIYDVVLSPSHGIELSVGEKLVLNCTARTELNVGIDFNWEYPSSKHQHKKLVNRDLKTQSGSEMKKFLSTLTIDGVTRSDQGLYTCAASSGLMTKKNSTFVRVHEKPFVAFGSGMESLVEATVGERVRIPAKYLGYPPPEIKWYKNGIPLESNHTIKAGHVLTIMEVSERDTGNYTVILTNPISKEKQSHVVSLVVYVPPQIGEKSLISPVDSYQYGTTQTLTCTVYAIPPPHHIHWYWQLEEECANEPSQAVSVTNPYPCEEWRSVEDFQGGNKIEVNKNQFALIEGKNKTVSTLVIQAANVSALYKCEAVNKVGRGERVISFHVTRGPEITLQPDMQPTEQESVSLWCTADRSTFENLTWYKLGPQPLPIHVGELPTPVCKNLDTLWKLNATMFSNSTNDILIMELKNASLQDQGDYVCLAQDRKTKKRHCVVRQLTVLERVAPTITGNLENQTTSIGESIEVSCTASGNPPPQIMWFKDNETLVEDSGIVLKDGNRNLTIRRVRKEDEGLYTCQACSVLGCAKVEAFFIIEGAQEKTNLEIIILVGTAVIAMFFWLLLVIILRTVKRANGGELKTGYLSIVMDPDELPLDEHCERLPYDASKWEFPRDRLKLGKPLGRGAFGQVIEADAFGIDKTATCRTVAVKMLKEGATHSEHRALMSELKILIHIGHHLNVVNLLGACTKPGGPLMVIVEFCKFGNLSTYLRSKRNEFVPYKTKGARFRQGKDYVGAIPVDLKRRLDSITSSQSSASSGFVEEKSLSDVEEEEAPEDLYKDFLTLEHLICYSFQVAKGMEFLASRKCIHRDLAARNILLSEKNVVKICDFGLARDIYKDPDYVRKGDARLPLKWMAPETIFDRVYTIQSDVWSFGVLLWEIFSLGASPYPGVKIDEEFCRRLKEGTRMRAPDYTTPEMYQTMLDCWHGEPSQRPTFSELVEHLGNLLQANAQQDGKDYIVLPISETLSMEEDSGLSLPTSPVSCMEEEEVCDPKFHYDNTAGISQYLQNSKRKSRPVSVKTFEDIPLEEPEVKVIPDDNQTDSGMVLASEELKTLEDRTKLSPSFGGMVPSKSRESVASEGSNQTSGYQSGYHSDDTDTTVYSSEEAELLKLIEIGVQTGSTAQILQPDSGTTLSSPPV

Dual specificity mitogen-activated protein kinase kinase 6 (Homo sapiens), sequence (P52564 whole entry): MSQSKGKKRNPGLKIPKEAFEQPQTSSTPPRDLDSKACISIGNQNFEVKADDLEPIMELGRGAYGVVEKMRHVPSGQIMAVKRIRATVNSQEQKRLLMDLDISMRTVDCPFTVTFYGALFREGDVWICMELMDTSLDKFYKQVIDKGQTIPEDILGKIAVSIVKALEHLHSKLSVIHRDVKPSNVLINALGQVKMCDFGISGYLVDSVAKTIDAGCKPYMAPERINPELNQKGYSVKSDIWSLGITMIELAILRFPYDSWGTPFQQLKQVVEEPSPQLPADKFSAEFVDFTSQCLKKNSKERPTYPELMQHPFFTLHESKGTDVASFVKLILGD
Death-associated protein kinase 1 (Homo sapiens), sequence (P53355 whole entry, looked up, the tested form may be a part): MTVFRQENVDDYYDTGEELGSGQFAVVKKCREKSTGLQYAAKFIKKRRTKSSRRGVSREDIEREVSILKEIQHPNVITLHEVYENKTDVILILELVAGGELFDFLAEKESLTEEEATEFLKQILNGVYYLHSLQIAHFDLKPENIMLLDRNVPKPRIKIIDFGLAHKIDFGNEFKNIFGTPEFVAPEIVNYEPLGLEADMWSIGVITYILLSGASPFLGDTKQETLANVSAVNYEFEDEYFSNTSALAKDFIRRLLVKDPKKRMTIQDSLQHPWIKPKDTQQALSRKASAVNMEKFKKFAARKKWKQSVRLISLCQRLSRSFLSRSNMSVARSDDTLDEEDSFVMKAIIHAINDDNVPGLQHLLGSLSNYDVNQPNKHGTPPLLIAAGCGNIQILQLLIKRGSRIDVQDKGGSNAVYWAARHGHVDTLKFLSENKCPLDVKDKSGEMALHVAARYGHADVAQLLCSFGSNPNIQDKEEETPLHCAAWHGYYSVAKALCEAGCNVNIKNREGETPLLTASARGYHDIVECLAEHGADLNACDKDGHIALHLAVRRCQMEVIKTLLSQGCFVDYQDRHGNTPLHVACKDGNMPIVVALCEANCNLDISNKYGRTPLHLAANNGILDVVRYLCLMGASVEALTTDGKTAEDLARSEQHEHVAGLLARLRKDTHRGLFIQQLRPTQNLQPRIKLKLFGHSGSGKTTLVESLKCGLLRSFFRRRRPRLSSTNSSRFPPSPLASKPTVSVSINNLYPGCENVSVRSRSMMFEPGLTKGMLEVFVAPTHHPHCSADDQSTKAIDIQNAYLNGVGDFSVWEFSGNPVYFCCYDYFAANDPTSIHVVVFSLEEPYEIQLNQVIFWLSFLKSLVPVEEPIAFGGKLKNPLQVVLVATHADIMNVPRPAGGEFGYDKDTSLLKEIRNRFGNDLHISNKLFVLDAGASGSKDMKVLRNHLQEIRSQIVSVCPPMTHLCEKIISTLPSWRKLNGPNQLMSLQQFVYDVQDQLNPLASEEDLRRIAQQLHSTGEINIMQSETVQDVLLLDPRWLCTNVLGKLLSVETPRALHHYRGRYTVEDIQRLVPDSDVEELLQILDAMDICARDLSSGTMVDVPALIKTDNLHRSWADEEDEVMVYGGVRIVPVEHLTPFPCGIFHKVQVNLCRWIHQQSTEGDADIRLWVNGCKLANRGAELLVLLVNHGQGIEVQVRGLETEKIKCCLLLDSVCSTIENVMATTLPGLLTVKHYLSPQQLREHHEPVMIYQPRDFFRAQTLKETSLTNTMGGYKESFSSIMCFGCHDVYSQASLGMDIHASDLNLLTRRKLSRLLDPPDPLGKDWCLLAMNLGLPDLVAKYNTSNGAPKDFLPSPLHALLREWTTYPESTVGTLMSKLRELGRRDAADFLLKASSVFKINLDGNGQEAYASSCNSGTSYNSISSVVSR
Non-receptor tyrosine-protein kinase TYK2 (Homo sapiens), sequence (P29597 whole entry): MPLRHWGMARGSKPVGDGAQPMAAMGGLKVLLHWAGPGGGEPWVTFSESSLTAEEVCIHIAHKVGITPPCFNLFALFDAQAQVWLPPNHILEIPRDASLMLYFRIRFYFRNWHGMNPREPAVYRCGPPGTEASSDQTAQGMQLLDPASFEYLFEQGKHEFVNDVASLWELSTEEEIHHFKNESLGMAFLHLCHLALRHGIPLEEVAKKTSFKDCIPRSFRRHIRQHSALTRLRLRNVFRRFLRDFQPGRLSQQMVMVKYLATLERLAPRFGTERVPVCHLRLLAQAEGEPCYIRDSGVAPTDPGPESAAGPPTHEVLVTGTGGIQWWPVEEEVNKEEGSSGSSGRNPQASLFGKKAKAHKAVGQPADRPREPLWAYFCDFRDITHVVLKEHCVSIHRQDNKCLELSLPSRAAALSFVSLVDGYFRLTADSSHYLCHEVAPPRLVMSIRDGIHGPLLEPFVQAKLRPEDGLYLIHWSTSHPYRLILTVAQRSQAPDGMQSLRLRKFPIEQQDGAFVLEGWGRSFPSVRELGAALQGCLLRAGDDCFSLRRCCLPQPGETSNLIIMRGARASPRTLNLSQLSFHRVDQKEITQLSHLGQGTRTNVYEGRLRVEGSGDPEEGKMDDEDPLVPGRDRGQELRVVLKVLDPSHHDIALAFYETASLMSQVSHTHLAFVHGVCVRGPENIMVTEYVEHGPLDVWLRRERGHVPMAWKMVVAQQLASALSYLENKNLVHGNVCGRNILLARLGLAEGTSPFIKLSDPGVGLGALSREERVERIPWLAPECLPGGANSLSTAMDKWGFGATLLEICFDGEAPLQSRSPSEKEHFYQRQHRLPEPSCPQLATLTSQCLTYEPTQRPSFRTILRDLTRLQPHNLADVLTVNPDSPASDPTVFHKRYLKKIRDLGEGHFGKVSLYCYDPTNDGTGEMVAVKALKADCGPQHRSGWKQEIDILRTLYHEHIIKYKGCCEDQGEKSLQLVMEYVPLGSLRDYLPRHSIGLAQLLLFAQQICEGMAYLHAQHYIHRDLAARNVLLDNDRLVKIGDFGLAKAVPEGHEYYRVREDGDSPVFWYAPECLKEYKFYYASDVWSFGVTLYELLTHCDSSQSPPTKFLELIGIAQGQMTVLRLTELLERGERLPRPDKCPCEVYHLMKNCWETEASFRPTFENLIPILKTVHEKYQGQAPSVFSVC
Phosphorylase b kinase gamma catalytic chain, liver/testis isoform (Homo sapiens), P15735 [F290L], sequence (P15735 whole entry F290L, the tested form may be a part, canonical isoform): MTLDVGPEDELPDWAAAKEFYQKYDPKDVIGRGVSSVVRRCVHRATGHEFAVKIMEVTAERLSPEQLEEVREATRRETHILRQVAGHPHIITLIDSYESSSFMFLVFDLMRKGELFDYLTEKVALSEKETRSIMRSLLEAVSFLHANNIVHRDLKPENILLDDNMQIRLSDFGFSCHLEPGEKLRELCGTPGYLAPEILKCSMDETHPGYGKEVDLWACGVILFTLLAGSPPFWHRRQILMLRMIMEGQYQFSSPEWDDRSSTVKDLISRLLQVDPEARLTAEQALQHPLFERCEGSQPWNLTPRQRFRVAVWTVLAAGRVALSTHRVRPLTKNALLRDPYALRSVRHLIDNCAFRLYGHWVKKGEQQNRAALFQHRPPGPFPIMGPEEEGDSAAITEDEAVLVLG

SMILES: C[C@@H](c1ccccc1)n1nnc2cnc3ccc(-c4cnc5[nH]ccc5c4)cc3c21
- Activity [1]: 61%
- Activity [2]: 92%
- Activity [3]: 40%
- Activity [4]: 74%
- Activity [5]: 27%
- Activity [6]: 7%
- Activity [7]: 23%
- Activity [8]: 80%
- Activity [9]: 91%
- Activity [10]: 2%
- Activity [11]: 63%
- Activity [12]: 92%
- Activity [13]: 27%
- Activity [14]: 109%
- Activity (Homo sapiens): 87%
- Activity [15]: 60%
- Activity [16]: 105%
- Activity [17]: 65%
- Activity [18]: 96%
- Activity [19]: 84%
- Activity [20]: 63%
